Values after ≈ are worked out from the molar mass of the structure shown.
Experiments:
[1] = tested on: RPMI8226 (multiple myeloma); assay: MTT multiple myeloma cell growth inhibition, 72 h; assay type: cell-based, human; conditions: Homo sapiens, RPMI-8226, RPMI8226, 72 h
Procedure, shortened: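 Viability determined by MTT after 72 h of compound exposure at 37° C under 5% CO2. Myeloma RPMI8226 cells were seeded at 6000 per well in 1640 medium containing 10% fetal bovine serum.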

[2] = tested on: PANC-1 (pancreatic cancer); assay: MTT solid tumor cell growth inhibition, 72 h; assay type: cell-based, human; conditions: Homo sapiens, PANC-1, 72 h
Procedure, shortened: (§1)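 Percent cell viability comes from the MTT method, normalised to untreated control wells as 100%. Compounds at varying concentrations were left on the cells for 72 h after a 24 h settling period, with 4000 cells seeded per well in 10% FBS-supplemented DMEM high glucose.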

MG63 (osteosarcoma) = assay: MTT solid tumor cell growth inhibition, 72 h; assay type: cell-based, human; conditions: Homo sapiens, MG 63, 72 h
Procedure, shortened: as §1

[3] = tested on: SK-OV-3 (ovarian cancer cell); assay: MTT solid tumor cell growth inhibition, 72 h; assay type: cell-based, human; conditions: Homo sapiens, SK-OV-3, 72 h
Procedure, shortened: as §1

[4] = tested on: CNE (nasopharyngeal carcinoma cell); assay: MTT solid tumor cell growth inhibition, 72 h; assay type: cell-based, human; conditions: Homo sapiens
Procedure, shortened: as §1

[5] = tested on: CaES-17 (esophageal cancer cell); assay: MTT solid tumor cell growth inhibition, 72 h; assay type: cell-based, human; conditions: Homo sapiens, CaEs17, CaES-17, 72 h
Procedure, shortened: as §1

PC-3 (prostate cancer) = assay: MTT solid tumor cell growth inhibition, 72 h; assay type: cell-based, human; conditions: Homo sapiens, PC-3, 72 h
Procedure, shortened: as §1

[6] = tested on: U87 MG (malignant glioma cell); assay: MTT solid tumor cell growth inhibition, 72 h; assay type: cell-based, human; conditions: Homo sapiens, U-87 MG
Procedure, shortened: as §1

[7] = tested on: A549, PANC-1, Becap37, MG63, Huh7, RKO, Hela, CaES-17, CNE, Hep-2, PC-3 and SK-OV-3; assay: Anti-human solid tumor effect, summary over cell lines; assay type: cell-based; conditions: result in words, summary of Table 2
Protocol: Human solid tumor cell lines: Hep-2 ([…]), A549 (human lung cancer), CaES-17 (esophageal cancer cell), PC-3 (prostate cancer), CNE (nasopharyngeal carcinoma cell), and SK-OV-3 (ovarian cancer cell), all of which are purchased from China Center For Type Culture Collection; RKO (human colon adenocarcinoma cell), MGC 803 (human gastric cancer cell), MG63 (osteosarcoma) and U87 MG (malignant glioma cell), all of which are purchased from Fuxiang Bio-tech Co. Ltd., Shanghai, China; PANC-1 (pancreatic cancer), Huh7 (human liver cancer cell), Becap37 (human breast cancer cell), and Hela (human cervical cancer cell), all of which are donated by Cancer Research Institute of Zhejiang University, China.
Obtaining 4000 well-growing human solid tumor cells and inoculating them into wells of a 96-well cell culture plate. The culture medium is DMEM High Glucose cell culture medium containing 10% fetal bovine serum. The plate is placed in a carbon dioxide cell incubator (5% CO2) at 37° C. and incubating for 24 hours. After adding the homoharringtonine derivatives of different concentration and mixing uniformly, the plate is placed in a carbon dioxide cell incubator (5% CO2) at 37° C. and incubating for 72 hours. Then the viable cell concentration is determined by the MTT method and the cell viability (%) after drug treatment is calculated. In this experiment, the cell viability of control group (not treated with any compound) is set as 100%.

[8] = tested on: Kasumi-1 (acute myeloid leukemia M2 type, AML-M2); assay: MTT leukemia cell growth inhibition, 72 h; assay type: cell-based, human; conditions: Homo sapiens, Kasumi-1, 72 h
Procedure, shortened: (§2)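 Using 6000 leukemia cells per well in 1640 medium supplemented with 10% fetal bovine serum, homoharringtonine derivatives at different concentrations were applied for 72 h, then viability was assessed by MTT.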

[9] = tested on: H9 (acute lymphoblastic leukemia, ALL); assay: MTT leukemia cell growth inhibition, 72 h; assay type: cell-based, human; conditions: Homo sapiens, H9, 72 h
Procedure, shortened: as §2

[10] = tested on: K562/adr (drug-resistant, chronic myeloid leukemia, CML); assay: MTT leukemia cell growth inhibition, 72 h; assay type: cell-based, human; conditions: Homo sapiens, K562/Adr
Procedure, shortened: as §2

[11] = tested on: Jurkat (acute lymphoblastic leukemia, ALL); assay: MTT leukemia cell growth inhibition, 72 h; assay type: cell-based, human; conditions: Homo sapiens
Procedure, shortened: as §2

[12] = tested on: NB4 (acute promyelocytic leukemia, AML); assay: MTT leukemia cell growth inhibition, 72 h; assay type: cell-based, human; conditions: Homo sapiens, NB4, 72 h
Procedure, shortened: as §2

[13] = tested on: MGC 803 (human gastric cancer cell); assay: MTT solid tumor cell growth inhibition, 72 h; assay type: cell-based; conditions: Homo sapiens, MGC 803, 72 h
Procedure, shortened: as §1

[14] = tested on: Hela (human cervical cancer cell); assay: MTT solid tumor cell growth inhibition, 72 h; assay type: cell-based; conditions: Homo sapiens, HeLa
Procedure, shortened: as §1

[15] = tested on: Becap37 (human breast cancer cell); assay: MTT solid tumor cell growth inhibition, 72 h; assay type: cell-based; conditions: Homo sapiens, Becap37, 72 h
Procedure, shortened: as §1

[16] = tested on: Hep-2 (human hepatocellular carcinoma); assay: MTT solid tumor cell growth inhibition, 72 h; assay type: cell-based; conditions: Homo sapiens, HEp-2, Hep2, 72 h
Procedure, shortened: as §1

[17] = tested on: RKO (human colon adenocarcinoma cell); assay: MTT solid tumor cell growth inhibition, 72 h; assay type: cell-based; conditions: Homo sapiens
Procedure, shortened: as §1

[18] = tested on: Huh7 (human liver cancer cell); assay: MTT solid tumor cell growth inhibition, 72 h; assay type: cell-based; conditions: Homo sapiens, Huh-7, Huh7, 72 h
Procedure, shortened: as §1

A549 (human lung cancer) = assay: MTT solid tumor cell growth inhibition, 72 h; assay type: cell-based; conditions: Homo sapiens, A549, 72 h
Procedure, shortened: as §1

COC1=C[C@]23CCCN2CCc2cc4c(cc2[C@@H]3[C@@H]1OC(=O)[C@@](O)(CCCC(C)(C)O)CC(=O)N1CCN(c2ccc(F)cc2)CC1)OCO4 [BS-HH-046, O-3-[(2R)-2,6-dihydroxy-2-(2′-(4-(4-fluorophenyl)piperazinyl)-2′-oxoethyl)-6-methylheptanoyl]cephalotaxine]
IC50 ([1]; read-out: IC50): 0.17 µg/mL (≈ 0.245 µM)
IC90 ([1]; read-out: IC90): 0.72 µg/mL (≈ 1.04 µM)
IC50 ([2]; read-out: IC50): 0.45 µg/mL (≈ 0.649 µM)
IC90 ([2]; read-out: IC90): > 16 µg/mL
IC50 (MG63 (osteosarcoma); read-out: IC50): 0.23 µg/mL (≈ 0.332 µM)
IC90 (MG63 (osteosarcoma); read-out: IC90): > 16 µg/mL
IC50 ([3]; read-out: IC50): 1.89 µg/mL (≈ 2.72 µM)
IC90 ([3]; read-out: IC90): > 16 µg/mL
IC50 ([4]; read-out: IC50): 0.3 µg/mL (≈ 0.432 µM)
IC90 ([4]; read-out: IC90): 16 µg/mL (≈ 23.1 µM)
IC50 ([5]; read-out: IC50): 0.98 µg/mL (≈ 1.41 µM)
IC90 ([5]; read-out: IC90): 16 µg/mL (≈ 23.1 µM)
IC50 (PC-3 (prostate cancer); read-out: IC50): 0.78 µg/mL (≈ 1.12 µM)
IC90 (PC-3 (prostate cancer); read-out: IC90): > 16 µg/mL
IC50 ([6]; read-out: IC50): 0.25 µg/mL (≈ 0.36 µM)
IC90 ([6]; read-out: IC90): > 16 µg/mL
anti-A549, anti-PANC-1, anti-Becap37, anti-MG63, anti-Huh7, anti-RKO, anti-Hela, anti-CaES-17, anti-CNE, anti-Hep-2, anti-PC-3 and anti-SK-OV-3 effect [7]: strong
IC50 ([8]; read-out: IC50): 0.26 µg/mL (≈ 0.375 µM)
IC90 ([8]; read-out: IC90): 2.26 µg/mL (≈ 3.26 µM)
IC50 ([9]; read-out: IC50): 0.5 µg/mL (≈ 0.721 µM)
IC90 ([9]; read-out: IC90): 7.84 µg/mL (≈ 11.3 µM)
IC50 ([10]; read-out: IC50): 14.5 µg/mL (≈ 20.9 µM)
IC90 ([10]; read-out: IC90): > 16 µg/mL
IC50 ([11]; read-out: IC50): 0.32 µg/mL (≈ 0.461 µM)
IC90 ([11]; read-out: IC90): 15.2 µg/mL (≈ 21.9 µM)
IC50 ([12]; read-out: IC50): 0.19 µg/mL (≈ 0.274 µM)
IC90 ([12]; read-out: IC90): 0.5 µg/mL (≈ 0.721 µM)
IC50 ([13]; read-out: IC50): 0.39 µg/mL (≈ 0.562 µM)
IC90 ([13]; read-out: IC90): 8.28 µg/mL (≈ 11.9 µM)
IC50 ([14]; read-out: IC50): 1.56 µg/mL (≈ 2.25 µM)
IC90 ([14]; read-out: IC90): > 16 µg/mL
IC50 ([15]; read-out: IC50): 0.4 µg/mL (≈ 0.577 µM)
IC90 ([15]; read-out: IC90): > 16 µg/mL
IC50 ([16]; read-out: IC50): 0.27 µg/mL (≈ 0.389 µM)
IC90 ([16]; read-out: IC90): > 16 µg/mL
IC50 ([17]; read-out: IC50): 0.054 µg/mL (≈ 0.0778 µM)
IC90 ([17]; read-out: IC90): 0.93 µg/mL (≈ 1.34 µM)
IC50 ([18]; read-out: IC50): 1.37 µg/mL (≈ 1.97 µM)
IC90 ([18]; read-out: IC90): > 16 µg/mL
IC50 (A549 (human lung cancer); read-out: IC50): 0.84 µg/mL (≈ 1.21 µM)
IC90 (A549 (human lung cancer); read-out: IC90): > 16 µg/mL

Reference: patent US9676789B2, “Aminated derivative of homoharringtonine, preparation method therefor, and application thereof” (HANGZHOU BENSHENG PHARMACEUTICAL CO., LTD., priority 2011, dated 2017)
